The values that follow come from ChEMBL document CHEMBL3272067, “4-Halovinyl- and 4-ethynyl-4-deformylpyridoxal derivatives and related analogues as potentially irreversible antagonists of vitamin B6” (J Med Chem, 1977).

Assay [1] deals with T1, Pyridoxine-5'-phosphate oxidase (Mus musculus) (UniProt Q91XF0).
T1 sequence (whole entry): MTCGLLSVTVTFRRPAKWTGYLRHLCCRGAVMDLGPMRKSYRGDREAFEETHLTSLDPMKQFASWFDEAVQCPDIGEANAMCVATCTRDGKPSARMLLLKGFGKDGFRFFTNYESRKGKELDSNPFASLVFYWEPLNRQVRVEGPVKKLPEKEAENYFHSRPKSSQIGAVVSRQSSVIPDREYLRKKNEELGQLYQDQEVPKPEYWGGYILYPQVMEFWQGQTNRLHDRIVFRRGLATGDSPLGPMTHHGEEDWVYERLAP
Put plainly: Inhibition of pyridoxine phosphate oxidase in mouse TA3 cells assessed as inhibition of 1 x 10^-7 M pyridoxal-induced cell growth. The assay is classed as cell-based.

The target of assay [2] is T1, Pyridoxine-5'-phosphate oxidase (Mus musculus). Kind of assay: Inhibition of pyridoxine phosphate oxidase in mouse TA3 cells assessed as inhibition of 10^-5 M pyridoxal-induced cell growth. It counts as cell-based.
The target in assay [3] is T2, Pyridoxine-5'-phosphate oxidase (Homo sapiens, UniProt Q9NVS9).
T2 sequence (Q9NVS9 whole entry): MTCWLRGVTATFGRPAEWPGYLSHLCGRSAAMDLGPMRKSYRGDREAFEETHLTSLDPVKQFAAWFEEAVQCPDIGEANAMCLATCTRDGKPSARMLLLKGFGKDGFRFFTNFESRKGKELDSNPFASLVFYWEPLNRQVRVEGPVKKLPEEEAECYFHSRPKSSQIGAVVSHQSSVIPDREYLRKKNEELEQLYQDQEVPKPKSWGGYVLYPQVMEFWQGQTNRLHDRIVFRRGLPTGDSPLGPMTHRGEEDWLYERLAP
Put plainly: Non-competitive inhibition of pyridoxine phosphate oxidase (unknown origin) assessed as oxidation of pyridoxol 5'-phosphate by Lineweaver-Burk plot analysis.

The target in assay [4] is T3, Pyridoxal kinase (Homo sapiens, UniProt O00764).
T3 sequence (O00764 whole entry): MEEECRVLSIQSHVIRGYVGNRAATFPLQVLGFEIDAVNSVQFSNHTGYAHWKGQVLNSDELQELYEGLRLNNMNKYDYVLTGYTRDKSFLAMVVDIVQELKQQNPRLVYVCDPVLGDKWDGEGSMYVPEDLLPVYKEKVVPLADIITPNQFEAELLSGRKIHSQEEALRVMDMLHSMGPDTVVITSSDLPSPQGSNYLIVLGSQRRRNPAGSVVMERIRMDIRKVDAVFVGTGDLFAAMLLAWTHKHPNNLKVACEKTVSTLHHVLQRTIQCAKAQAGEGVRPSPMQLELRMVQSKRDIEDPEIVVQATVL
Put plainly: Competitive inhibition of pyridoxal phosphokinase (unknown origin).

The target in assay [5] is T4, Pyridoxine-5'-phosphate oxidase (Homo sapiens) (UniProt Q9NVS9).
T4 sequence (whole entry): T2 sequence (Q9NVS9 whole entry)
Kind of assay: Competitive inhibition of pyridoxine phosphate oxidase (unknown origin) assessed as oxidation of pyridoxol 5'-phosphate by Lineweaver-Burk plot analysis.

The target of assay [6] is T1, Pyridoxine-5'-phosphate oxidase (Mus musculus). Kind of assay: Inhibition of pyridoxine phosphate oxidase in mouse TA3 cells assessed as inhibition of 1 x 10^-7 M pyridoxal-induced cell growth at 10^-4 M. The assay is classed as cell-based.
Assay [7] concerns the target T3, Pyridoxal kinase. Put plainly: Non-competitive inhibition of pyridoxal phosphokinase (unknown origin).

Activity calls are given as the source filed them. No cut-off for these calls is given here.

Turning to `Cc1ncc(CO)c(C)c1O`, the ID50 in assay [1] is 6.8 ×10⁻⁸ M. The “growth inhibition (GI)” value in assay [2] was “inactive”. One may read the Ki as a measure of affinity in units of concentration, obtained from inhibition or displacement. In the case of `C#Cc1c(COP(=O)(O)O)cnc(C)c1O`, the ID50 in assay [1] is 3.8 µM. Moreover, in assay [3], the Ki came to 550 nM. Regarding `Cc1ncc(COCc2ccccc2)c(/C=C/Cl)c1OCc1ccccc1`, the ID50 in assay [1] was 3 µM. Still for that read-out and setting: with `Cc1ncc(CO)c(/C=C/Br)c1O` the figure was 1.2 ×10⁻⁵ M. Still for that read-out and setting: as for `C=C/C=C/c1c(COCc2ccccc2)cnc(C)c1OCc1ccccc1`, the figure is 1.5 ×10⁻⁵ M; as for `C=C(Cl)c1c(CO)cnc(C)c1O`, 9.5 µM.

In assay [4], `C=Cc1c(CO)cnc(C)c1O` had an inhibitory constant (Ki) of 22.5 µM. Also, the inhibition result in assay [5] was “Active”. Besides, the ID50 in assay [1] came to 0.0025 µM. For the same compound, in assay [2], the “growth inhibition (GI)” value is “inactive”. Take `CC/C=C/c1c(COCc2ccccc2)cnc(C)c1OCc1ccccc1`: in assay [1], the ID50 was determined as 1.5 ×10⁻⁵ M. On to `CC(=O)c1c(CO)cnc(C)c1O`, for which the inhibition entry in assay [6] was “inactive”.

As for `C#Cc1c(CO)cnc(C)c1O`, the inhibition constant (Ki) in assay [7] was 125 µM. In addition, the results for the ID50 in assay [1] and in assay [2] were 8 µM and 9 ×10⁻⁵ M, respectively.
